The source of these data is US11407736B2 (priority 2019, dated 2022).

As a reminder, the IC50 is the point on the concentration scale where inhibition reaches its midpoint.

One test has as its system L929 cells. The test is described as follows: L929 cell necroptosis assay (TNFa + zVAD, CellTiter-Glo). It counts as cell-based, murine. The settings on record: TNFa + zVAD, read-out: L929-CTG-recovery, L929, TNFa + zVAD (IC50). The gist of the method: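 Murine L929 cells, plated 18 h beforehand at 10K cells/well in RPMI 1640 with 10% FBS, were switched to medium containing 40 uM zVAD-fmk and given compound from 4-fold serial dilutions. Viability after 18 h of TNFa stimulation at 37° C was read by CellTiter-Glo luminescence.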
For orientation: In ATP-based viability assays light output follows the ATP content of the culture.

In a further test the target is RIPK1 (Homo sapiens (Human), UniProt Q13546). Kind of test: RIPK1 ADP-Glo biochemical kinase assay. The settings on record: read-out: RIPK1 ADP-Glo Kinase (IC50). The procedure:
The final reaction volume was 5.0ul.
Adding 5 μl of ADP-Glo™ terminated the reaction.
In general terms: In ADP-Glo the light output rises with the ADP produced.

Another test concerns U937 cells. Kind of test: U937 cell necroptosis assay (TNFa + zVAD, CellTiter-Glo). It counts as cell-based, human. As to conditions: TNFa + zVAD, read-out: U937 Zvad TNF CTG Recovery, U937, TNFa + zVAD (IC50). The gist of the method:
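Human U937 and murine L929 cells in RPMI 1640/10% FBS were pre-incubated 1 h at 37 °C with serially diluted compound plus zVAD-fmk (U937 plated with 60 uM, L929 medium with 40 uM), then stimulated with 2 ng/mL TNFa (final). Viability read by CellTiter-Glo luminescence after 18 h.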

The mark [1] stands for this setting: Homo sapiens, U-937, U937 cells.

Counter-ions that a name gives are not always drawn. Like-named read-outs stand apart in the source and are kept apart here.

RIPK1, sequence (Q13546 whole entry, species assumed): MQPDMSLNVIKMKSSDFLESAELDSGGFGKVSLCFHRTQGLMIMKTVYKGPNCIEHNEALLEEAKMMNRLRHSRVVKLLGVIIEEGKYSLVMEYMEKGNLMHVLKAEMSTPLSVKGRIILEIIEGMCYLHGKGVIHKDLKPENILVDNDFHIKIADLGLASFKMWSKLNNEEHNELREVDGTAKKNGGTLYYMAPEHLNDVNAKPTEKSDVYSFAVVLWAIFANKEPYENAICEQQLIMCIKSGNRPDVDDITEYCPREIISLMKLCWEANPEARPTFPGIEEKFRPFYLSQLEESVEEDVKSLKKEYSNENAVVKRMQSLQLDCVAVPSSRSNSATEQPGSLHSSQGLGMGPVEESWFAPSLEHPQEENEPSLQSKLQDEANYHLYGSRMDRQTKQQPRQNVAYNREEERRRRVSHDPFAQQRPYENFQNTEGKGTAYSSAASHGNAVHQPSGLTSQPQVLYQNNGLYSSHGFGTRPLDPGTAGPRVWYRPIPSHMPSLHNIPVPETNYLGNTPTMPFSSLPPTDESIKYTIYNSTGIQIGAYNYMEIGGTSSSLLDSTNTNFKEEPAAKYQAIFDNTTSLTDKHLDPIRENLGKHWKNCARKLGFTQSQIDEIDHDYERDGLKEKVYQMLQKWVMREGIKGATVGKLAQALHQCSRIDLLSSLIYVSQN

Take `CN1C(=O)[C@@H](NC(=O)c2ncn(Cc3ccccc3)n2)COc2ccc(CCC(=O)NC3CC3)cc21` [Compound I-26, (S)-1-benzyl-N-(7-(3-(cyclopropylamino)-3-oxopropyl)-5-methyl-4-oxo-2,3,4,5-tetrahydrobenzo[b][1,4]oxazepin-3-yl)-1H-1,2,4-triazole-3-carboxamide]: the IC50 in the test on L929 cells (Mus musculus, L929, L929 cells) was determined as 613 nM; at RIPK1 it was 65.6 nM; in the test with U937 cells (setting [1]), 4.4 nM.
As to `CN1C(=O)[C@@H](NC(=O)c2n[nH]c(Cc3ccccc3)n2)COc2ccc(C#CC3(O)CCOCC3)cc21` [Compound I-55, (S)-5-benzyl-N-(7-((4-hydroxytetrahydro-2H-pyran-4-yl)ethynyl)-5-methyl-4-oxo-2,3,4,5-tetrahydrobenzo[b][1,4]oxazepin-3-yl)-1H-1,2,4-triazole-3-carboxamide], the IC50 with L929 cells (Mus musculus, L929, L929 cells) turned out to be 0.6 nM; at RIPK1, 33.7 nM; in the test on U937 cells (setting [1]), 2 nM.
For the compound `CN1C(=O)[C@@H](NC(=O)c2n[nH]c(Cc3ccccc3)n2)COc2ccc(/C=C/C(=O)N3CCCC3)cc21` [Compound I-22, (S,E)-5-benzyl-N-(5-methyl-4-oxo-7-(3-oxo-3-(pyrrolidin-1-yl)prop-1-en-1-yl)-2,3,4,5-tetrahydrobenzo[b][1,4]oxazepin-3-yl)-1H-1,2,4-triazole-3-carboxamide], the IC50 in the test with L929 cells (Mus musculus, L929, L929 cells) came to 3380 nM; on RIPK1, 48 nM; in the test with U937 cells (setting [1]), 4.8 nM.
For the compound `CN1C(=O)[C@@H](NC(=O)c2cc(Oc3ccccc3)ccn2)COc2ccc(C#CC3(O)CNC3)cc21` [Compound I-136, (S)—N-(7-((3-hydroxyazetidin-3-yl)ethynyl)-5-methyl-4-oxo-2,3,4,5-tetrahydrobenzo[b][1,4]oxazepin-3-yl)-4-phenoxypicolinamide], the 50% inhibitory concentration (IC50) turned out to be 4970 nM in the test on L929 cells (Mus musculus, L929, L929 cells); 26.7 nM at RIPK1; 15.2 nM with U937 cells (setting [1]).
On the same counts, the results for `CC(C)CCc1ccc2c(c1)N(C)C(=O)[C@@H](NC(=O)c1cc(Oc3ccccc3)ccn1)CO2` [Compound I-108, (S)—N-(7-isopentyl-5-methyl-4-oxo-2,3,4,5-tetrahydrobenzo[b][1,4]oxazepin-3-yl)-4-phenoxypicolinamide] are 2310 nM, 314 nM and 8.8 nM.
On to `CN1C(=O)[C@@H](NC(=O)c2cc(Oc3ccc(F)cc3)ccn2)COc2ccc(C#CC3(O)COC3)cc21` [Compound I-111, (S)-4-(4-fluorophenoxy)-N-(7-((3-hydroxyoxetan-3-yl)ethynyl)-5-methyl-4-oxo-2,3,4,5-tetrahydrobenzo[b][1,4]oxazepin-3-yl)picolinamide], for which the IC50 came to 99.9 nM in the test on L929 cells (Mus musculus, L929, L929 cells); 21.8 nM at RIPK1; 3.1 nM with U937 cells (setting [1]).
For `CN1C(=O)[C@@H](NC(=O)c2ncn(Cc3ccccc3)n2)COc2ccc(C#CC3(O)CCOCC3)cc21` [Compound I-54, (S)-1-benzyl-N-(7-((4-hydroxytetrahydro-2H-pyran-4-yl)ethynyl)-5-methyl-4-oxo-2,3,4,5-tetrahydrobenzo[b][1,4]oxazepin-3-yl)-1H-1,2,4-triazole-3-carboxamide], the concentration for half-maximal inhibition (IC50) came out at 0.3 nM with L929 cells (Mus musculus, L929, L929 cells); 26.9 nM at RIPK1; 0.9 nM in the test on U937 cells (setting [1]).
On the same counts, the results for `CN1C(=O)[C@@H](NC(=O)c2cc(Oc3ccc(F)cc3F)ccn2)COc2ccc(C#CC(C)(C)O)cc21` [Compound I-105, (S)-4-(2,4-difluorophenoxy)-N-(7-(3-hydroxy-3-methylbut-1-yn-1-yl)-5-methyl-4-oxo-2,3,4,5-tetrahydrobenzo[b][1,4]oxazepin-3-yl)picolinamide] are 254 nM, 31.2 nM and 9.3 nM.
Turning to `CC(C)[C@H](N)C(=O)OC1(C#Cc2ccc3c(c2)N(C)C(=O)[C@@H](NC(=O)c2cc(Oc4ccccc4)ccn2)CO3)COC1` [Compound I-164, 3-4(S)-5-methyl-4-oxo-3-(4-phenoxypicolinamido)-2,3,4,5-tetrahydrobenzo[b][1,4]oxazepin-7-yl)ethynyl)oxetan-3-yl L-valinate benzenesulfonic acid salt], the figures for the IC50 in the test with L929 cells (L929 cells), at RIPK1 and in the test on U937 cells (U937 cells) were 31.9 nM, 71.7 nM and 0.7 nM, respectively.
In the case of `CN1C(=O)[C@H](NC(=O)c2n[nH]c(Cc3ccccc3)n2)COc2ccc(C#CC(C)(C)O)cc21` [Compound I-70, (R)-5-benzyl-N-(7-(3-hydroxy-3-methylbut-1-yn-1-yl)-5-methyl-4-oxo-2,3,4,5-tetrahydrobenzo[b][1,4]oxazepin-3-yl)-1H-1,2,4-triazole-3-carboxamide], the IC50 is 19.5 nM in the test on L929 cells (Mus musculus, L929, L929 cells); 1160 nM on RIPK1; 188 nM in the test with U937 cells (setting [1]).
Taken in the same sequence, the figures for `CN1C(=O)[C@@H](NC(=O)c2ncn(Cc3ccccc3)n2)COc2ccc(C#CC(C)(C)O)cc21` [Compound I-29, (S)-1-benzyl-N-(7-(3-hydroxy-3-methylbut-1-yn-1-yl)-5-methyl-4-oxo-2,3,4,5-tetrahydrobenzo[b][1,4]oxazepin-3-yl)-1H-1,2,4-triazole-3-carboxamide] were 8.8 nM, 12.4 nM and 2.3 nM.
As for `CN1C(=O)[C@@H](NC(=O)c2cc(Oc3ccccc3)ccn2)COc2ccc(C#CC3(OC(=O)CCC(=O)O)COC3)cc21` [Compound I-165, (S)-4-((3-((5-methyl-4-oxo-3-(4-phenoxypicolinamido)-2,3,4,5-tetrahydrobenzo[b][1,4]oxazepin-7-yl)ethynyl)oxetan-3-yl)oxy)-4-oxobutanoic acid 2-amino-2-(hydroxymethyl)propane-1,3-diol salt], the IC50 in the test on L929 cells (L929 cells) turned out to be 47.1 nM; on RIPK1, 11.2 nM; in the test on U937 cells (U937 cells), 0.9 nM.
Turning to `CN1C(=O)[C@@H](NC(=O)c2nnc(Cc3ccccc3)o2)COc2ccc(C#CC(C)(C)O)cc21` [Compound I-71, (S)-5-benzyl-N-(7-(3-hydroxy-3-methylbut-1-yn-1-yl)-5-methyl-4-oxo-2,3,4,5-tetrahydrobenzo[b][1,4]oxazepin-3-yl)-1,3,4-oxadiazole-2-carboxamide], the IC50 in the test on L929 cells (Mus musculus, L929, L929 cells) came to 0.2 nM; at RIPK1, 21.7 nM; with U937 cells (setting [1]), 0.9 nM.
With `CC(=O)O[C@@H](C(=O)O)[C@@H](OC(C)=O)C(=O)OCC(C)(C)C#Cc1ccc2c(c1)N(C)C(=O)[C@@H](NC(=O)c1cc(Oc3ccccc3)ccn1)CO2` [Compound I-145, (2R,3R)-2,3-diacetoxy-4-((2,2-dimethyl-4-((S)-5-methyl-4-oxo-3-(4-phenoxypicolinamido)-2,3,4,5-tetrahydrobenzo[b][1,4]oxazepin-7-yl)but-3-yn-1-yl)oxy)-4-oxobutanoic acid], the IC50 in the test on L929 cells (Mus musculus, L929, L929 cells) worked out at 3050 nM; at RIPK1 it was 27.5 nM; with U937 cells (setting [1]), 8.6 nM.
Consider `CN1C(=O)[C@@H](NC(=O)c2ncn(Cc3c(Cl)cccc3Cl)n2)COc2ccc(CCC(=O)NC3CC3)cc21` [Compound I-19, (S)—N-(7-(3-(cyclopropylamino)-3-oxopropyl)-5-methyl-4-oxo-2,3,4,5-tetrahydrobenzo[b][1,4]oxazepin-3-yl)-1-(2,6-dichlorobenzyl)-1H-1,2,4-triazole-3-carboxamide], for which the 50% inhibitory concentration (IC50) in the test with L929 cells (Mus musculus, L929, L929 cells) was 1300 nM; on RIPK1, 146 nM; in the test on U937 cells (setting [1]), 2.7 nM.
